Experimental data reported in patent US20110082130A1 (LIGAND PHARMACEUTICALS, INC., priority 2006, published 2011).

Target: T1, chimeric human H3 receptor (Homo sapiens, UniProt Q9Y5N1)
T1 construct: made in house; host or cells: Sf9 insect cells (baculovirus); P2 membrane preparation
Assay: Chimeric human H3 receptor screening GTP binding assay (inhibition of histamine-stimulated GTP-gamma35S binding, Example 8)
Assay type: biochemical
Settings: Table II "Ki", symbol †, 4 μM of the compound, 1 μM histamine, read-out: percent inhibition of the signal obtained with 1 μM histamine
Procedure, shortened: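 Sf9 membranes co-expressing chimeric human H3 receptor and heterotrimeric G-protein, 35 μg per reaction, incubated 60 min at room temperature with 4 μM compound, 1 μM histamine, 10 μM GDP and […] GTP-gamma35S at pH 7.4. Filter-bound radioactivity counted. Result expressed as percent inhibition of the histamine signal after subtracting non-specific binding (10 μM GTP-gammaS).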

T1 sequence (Q9Y5N1 with tags, fused parts or gaps): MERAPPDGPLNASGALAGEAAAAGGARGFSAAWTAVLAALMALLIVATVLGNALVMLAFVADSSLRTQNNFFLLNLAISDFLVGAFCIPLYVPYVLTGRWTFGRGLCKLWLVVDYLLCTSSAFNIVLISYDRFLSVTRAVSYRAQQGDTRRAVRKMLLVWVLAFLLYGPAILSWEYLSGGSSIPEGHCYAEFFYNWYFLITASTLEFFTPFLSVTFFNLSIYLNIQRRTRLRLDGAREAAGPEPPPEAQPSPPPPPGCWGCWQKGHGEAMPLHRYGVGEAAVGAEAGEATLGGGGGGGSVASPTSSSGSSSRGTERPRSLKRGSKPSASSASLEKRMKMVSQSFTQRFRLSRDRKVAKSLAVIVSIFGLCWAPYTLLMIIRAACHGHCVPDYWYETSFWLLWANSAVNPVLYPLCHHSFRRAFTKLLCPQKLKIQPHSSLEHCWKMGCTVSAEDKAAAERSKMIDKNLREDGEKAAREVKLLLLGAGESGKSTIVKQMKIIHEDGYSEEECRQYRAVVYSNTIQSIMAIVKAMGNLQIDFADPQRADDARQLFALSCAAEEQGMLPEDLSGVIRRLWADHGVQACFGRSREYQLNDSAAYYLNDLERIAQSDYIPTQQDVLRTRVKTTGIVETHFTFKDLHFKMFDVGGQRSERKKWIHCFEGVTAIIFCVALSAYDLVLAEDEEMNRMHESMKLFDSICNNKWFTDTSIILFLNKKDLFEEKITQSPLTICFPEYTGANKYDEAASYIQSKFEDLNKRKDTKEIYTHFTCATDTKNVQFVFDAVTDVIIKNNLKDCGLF

Structure (SMILES)	inhibition at 4 µM [%]
O=C(CN1CCc2cc(-c3ccc(Cl)c(Cl)c3)ccc2C1)N1CCN(C2CCC2)CC1 [Compound 594, 2-[2-(4-cyclobutylpiperazin-1-yl)-2-oxoethyl]-6-(3,4-dichlorophenyl)-1,2,3,4-tetrahydroisoquinoline]	≥ 90
O=C(CN1CCc2cc(-c3ccc(Cl)c(Cl)c3)ccc2C1)N1CCN(C2CCCC2)CC1 [Compound 595, 2-[2-(4-cyclopentylpiperazin-1-yl)-2-oxoethyl]-6-(3,4-dichlorophenyl)-1,2,3,4-tetrahydroisoquinoline]	≥ 90
O=C(CN1CCc2cc(-c3cc(F)cc(F)c3)ccc2C1)N1CCN(C2CCC2)CC1 [Compound 596, 2-[2-(4-cyclobutylpiperazin-1-yl)-2-oxoethyl]-6-(3,5-difluorophenyl)-1,2,3,4-tetrahydroisoquinoline]	≥ 90
O=C(CN1CCc2cc(-c3cc(F)cc(F)c3)ccc2C1)N1CCN(C2CCCC2)CC1 [Compound 597, 2-[2-(4-cyclopentylpiperazin-1-yl)-2-oxoethyl]-6-(3,5-difluorophenyl)-1,2,3,4-tetrahydroisoquinoline]	≥ 90
O=C(CN1CCc2cc(-c3cc(F)cc(F)c3)ccc2C1)N1CCN(C2CCCCC2)CC1 [Compound 598, 2-[2-(4-cyclohexylpiperazin-1-yl)-2-oxoethyl]-6-(3,5-difluorophenyl)-1,2,3,4-tetrahydroisoquinoline]	≥ 90
O=C(CN1CCc2cc(-c3cccc(F)c3F)ccc2C1)N1CCN(C2CCC2)CC1 [Compound 599, 2-[2-(4-cyclobutylpiperazin-1-yl)-2-oxoethyl]-6-(2,3-difluorophenyl)-1,2,3,4-tetrahydroisoquinoline]	≥ 90
O=C(CN1CCc2cc(-c3cccc(F)c3F)ccc2C1)N1CCN(C2CCCC2)CC1 [Compound 600, 2-[2-(4-cyclopentylpiperazin-1-yl)-2-oxoethyl]-6-(2,3-difluorophenyl)-1,2,3,4-tetrahydroisoquinoline]	≥ 90
O=C(CN1CCc2cc(-c3cccc(F)c3F)ccc2C1)N1CCN(C2CCCCC2)CC1 [Compound 601, 2-[2-(4-cyclohexylpiperazin-1-yl)-2-oxoethyl]-6-(2,3-difluorophenyl)-1,2,3,4-tetrahydroisoquinoline]	≥ 90
CC(C)N1CCN(C(=O)CN2CCc3cc(-c4cccc(F)c4F)ccc3C2)CC1 [Compound 602, 6-(2,3-difluorophenyl)-2-[2-(4-isopropylpiperazin-1-yl)-2-oxoethyl]-1,2,3,4-tetrahydroisoquinoline]	≥ 90
CCN1CCN(C(=O)CN2CCc3cc(-c4cncnc4)ccc3C2)CC1 [Compound 603, 2-[2-(4-ethylpiperazin-1-yl)-2-oxoethyl]-6-pyrimidin-5-yl-1,2,3,4-tetrahydroisoquinoline]	≥ 90
CCCCN1CCN(C(=O)CN2CCc3cc(-c4cncnc4)ccc3C2)CC1 [Compound 604, 2-[2-(4-butylpiperazin-1-yl)-2-oxoethyl]-6-pyrimidin-5-yl-1,2,3,4-tetrahydroisoquinoline]	≥ 90
CC(C)CN1CCN(C(=O)CN2CCc3cc(-c4cncnc4)ccc3C2)CC1 [Compound 605, 2-[2-(4-isobutylpiperazin-1-yl)-2-oxoethyl]-6-pyrimidin-5-yl-1,2,3,4-tetrahydroisoquinoline]	≥ 90
CCC(C)N1CCN(C(=O)CN2CCc3cc(-c4cncnc4)ccc3C2)C[C@H]1C (stereo partly drawn) [Compound 606, 2-{2-[(3R)-4-sec-butyl-3-methylpiperazin-1-yl]-2-oxoethyl}-6-pyrimidin-5-yl-1,2,3,4-tetrahydroisoquinoline]	≥ 90
CC(C)C(C)N1CCN(C(=O)CN2CCc3cc(-c4cncnc4)ccc3C2)CC1 (stereo not drawn) [Compound 607, 2-{2-[4-(1,2-dimethylpropyl)piperazin-1-yl]-2-oxoethyl}-6-pyrimidin-5-yl-1,2,3,4-tetrahydroisoquinoline]	≥ 90
CC(C1CC1)N1CCN(C(=O)CN2CCc3cc(-c4cncnc4)ccc3C2)CC1 (stereo not drawn) [Compound 609, 2-{2-[4-(1-cyclopropylethyl)piperazin-1-yl]-2-oxoethyl}-6-pyrimidin-5-yl-1,2,3,4-tetrahydroisoquinoline]	≥ 90

More lines, now with the values ahead:

inhibition at 4 µM [%]	Structure (SMILES)
≥ 90	O=C(CN1CCc2cc(-c3cncnc3)ccc2C1)N1CCN(C2CCOCC2)CC1 [Compound 621, 2-{2-oxo-2-[4-(tetrahydro-2H-pyran-4-yl)piperazin-1-yl]ethyl}-6-pyrimidin-5-yl-1,2,3,4-tetrahydroisoquinoline]
≥ 90	C[C@H]1CN(C(=O)CN2CCc3cc(-c4cncnc4)ccc3C2)CCN1C1CCOCC1 [Compound 622, 2-{2-[(3S)-3-methyl-4-(tetrahydro-2H-pyran-4-yl)piperazin-1-yl]-2-oxoethyl}-6-pyrimidin-5-yl-1,2,3,4-tetrahydroisoquinoline]
≥ 90	O=C(CN1CCc2cc(-c3cncnc3)ccc2C1)N1CCN(C2C[C@H]3CC[C@@H]2C3)CC1 (stereo partly drawn) [Compound 623, 2-(2-{4-[(1R,4S)-bicyclo[2.2.1]hept-2-yl]piperazin-1-yl}-2-oxoethyl)-6-pyrimidin-5-yl-1,2,3,4-tetrahydroisoquinoline]
≥ 90	Cc1cc(F)ccc1-c1ccc2c(c1)CCN(CC(=O)N1CCN(C3CCC3)CC1)C2 [Compound 626, 2-[2-(4-cyclobutylpiperazin-1-yl)-2-oxoethyl]-6-(4-fluoro-2-methylphenyl)-1,2,3,4-tetrahydroisoquinoline]
≥ 90	COCC(C)Nc1ccc2c(n1)CCN(CC(=O)N1CCN(C3CCC3)CC1)C2 (stereo not drawn) [Compound 665, 6-[2-(4-cyclobutylpiperazin-1-yl)-2-oxoethyl]-N-(2-methoxy-1-methylethyl)-5,6,7,8-tetrahydro-1,6-naphthyridin-2-amine]
≥ 90	CC(C)OCCNc1ccc2c(n1)CCN(CC(=O)N1CCN(C3CCC3)CC1)C2 [Compound 668, 6-[2-(4-cyclobutylpiperazin-1-yl)-2-oxoethyl]-N-(2-isopropoxyethyl)-5,6,7,8-tetrahydro-1,6-naphthyridin-2-amine]
≥ 90	CCCOCCNc1ccc2c(n1)CCN(CC(=O)N1CCN(C3CCC3)CC1)C2 [Compound 669, 6-[2-(4-cyclobutylpiperazin-1-yl)-2-oxoethyl]-N-(2-propoxyethyl)-5,6,7,8-tetrahydro-1,6-naphthyridin-2-amine]
≥ 90	COC1CCCN(c2ccc3c(n2)CCN(CC(=O)N2CCN(C4CCC4)CC2)C3)C1 (stereo not drawn) [Compound 671, 6-[2-(4-cyclobutylpiperazin-1-yl)-2-oxoethyl]-2-(3-methoxypiperidin-1-yl)-5,6,7,8-tetrahydro-1,6-naphthyridine]
≥ 90	CN(CC#N)c1ccc2c(n1)CCN(CC(=O)N1CCN(C3CCC3)CC1)C2 [Compound 680, [{6-[2-(4-cyclobutylpiperazin-1-yl)-2-oxoethyl]-5,6,7,8-tetrahydro-1,6-naphthyridin-2-yl}(methyl)amino] acetonitrile]
